Measurements reported in PMC6271338, “Synthesis and Cytotoxic Evaluation of Alkoxylated Chalcones” (Molecules, 2014).

Key:
[1] = tested on: HepG2 cells; experiment: In vitro anti-proliferative SRB assay, HepG2; type: cell-based, human; settings: Homo sapiens; for inhibition at 10 µM: HepG2 cells, SRB assay, mean ± SD of three independent experiments
Experimental: (§1) HepG2 and MCF7 cells were grown in the Eagle’s minimum essential medium with Earle’s balanced salts (MEM-EBSS) medium, HeLa, A549 and L02 cells were grown in Dulbecco’s Modified Eagle Media (DMEM), SW1990 cells were grown in RPMI-1640 medium, and HMLE cell were grown in DMEM/F-12 medium. […]
(§2) Cells were seeded into 96-well plates (4000 cells/well) and incubated at 37 °C in a humidified 5% CO2 atmosphere. After 24 h, the cells were treated with different concentrations of the compounds for 48 h in triplicate to generate dose-response curves. Cell viability was evaluated using the sulforhodamine B (SRB) assay as previous described.

[2] = tested on: SW1990 cells; experiment: In vitro anti-proliferative SRB assay, SW1990; type: cell-based, human; settings: Homo sapiens, SW1990; increasing concentrations up to 30 μM; mean ± SD of at least three independent experiments
Experimental: as §1, §2

[3] = Cytotoxicity (SRB) against non-tumoral L02 cells; type: cell-based, human; settings: human, L02 cells (non-tumoral human liver cell line); increasing concentrations up to 100 μM; mean ± SD of at least three independent experiments; read-out: Normal Human Cell Lines, CC50, L02
Experimental: (§3) All compounds were also evaluated for their cytotoxic activity against two non-tumoral human cell lines named human mammary epithelial cell (HMLE) and L02 (a human liver cell line) in Table 2 and SI values between the CC50 in non-tumoral cell lines and IC50 in tumoral cells calculated.
as §1
as §2, with “described. […] Etoposide was used as the positive control.” for “described.”

[4] = tested on: MCF-7 cells; experiment: In vitro anti-proliferative SRB assay, MCF-7; type: cell-based, human; settings: Homo sapiens, MCF7; increasing concentrations up to 30 μM; mean ± SD of at least three independent experiments
Experimental: as §1, §2

[5] = tested on: A549 cells; experiment: In vitro anti-proliferative SRB assay, A549; type: cell-based, human; settings: Homo sapiens, A549; increasing concentrations up to 30 μM; mean ± SD of at least three independent experiments
Experimental: as §1, §2

[6] = Cytotoxicity (SRB) against non-tumoral HMLE cells; type: cell-based, human; settings: human, HMLE cells (non-tumoral human mammary epithelial cells); increasing concentrations up to 100 μM; mean ± SD of at least three independent experiments; read-out: Normal Human Cell Lines, CC50, HMLE
Experimental: as §3, §1
as §2, with “described. […] Etoposide was used as the positive control.” for “described.”

[7] = tested on: HeLa cells; experiment: In vitro anti-proliferative SRB assay, HeLa; type: cell-based, human; settings: Homo sapiens, HeLa; increasing concentrations up to 30 μM; mean ± SD of at least three independent experiments
Experimental: as §1, §2

Row | SMILES | melting point | inhibition at 10 µM [1] | also measured
1 | COc1cc([C@@H]2c3cc4c(cc3[C@@H](O[C@@H]3O[C@@H]5CO[C@@H](C)O[C@H]5[C@H](O)[C@H]3O)[C@H]3COC(=O)[C@H]23)OCO4)cc(OC)c1O [Etoposide, reference compound] |  | 63.9 ± 0.1% | IC50 ([1]; HepG2, increasing concentrations up to 30 μM, mean ± SD of at least three independent experiments): 5.11 ± 0.45 µM; IC50 [2]: 29.3 ± 1.73 µM; CC50 at 48 h [3]: > 100 µM; IC50 [4]: 20.6 ± 0.34 µM; IC50 [5]: 3.23 ± 0.28 µM; CC50 at 48 h [6]: 6.42 ± 0.39 µM; IC50 [7]: 3.96 ± 0.17 µM
2 | COc1ccc(C(=O)/C=C/c2ccccc2)cc1 [a1, (E)-1-(4-Methoxyphenyl)-3-phenylprop-2-en-1-one] |  | 42.4 ± 2% | 
3 | COc1ccc(C(=O)/C=C/c2ccc([N+](=O)[O-])cc2)cc1 [a6, (E)-1-(4-Methoxyphenyl)-3-(4-nitrophenyl)prop-2-en-1-one] |  | 9.8 ± 5% | 
4 | COc1ccc(C(=O)/C=C/c2ccccc2OC)cc1 [a8, (E)-1-(4-Methoxyphenyl)-3-(2-methoxyphenyl)prop-2-en-1-one] | 43.2 to 45.5 °C | 61.4 ± 3.4% | 
5 | COc1ccc(/C=C/C(=O)c2ccc(OC)cc2)cc1 [a10, (E)-1,3-bis(4-Methoxyphenyl)prop-2-en-1-one] |  | 27.7 ± 17.7% | 

Further lines, with some results ahead:

Row | melting point | SMILES | inhibition at 10 µM [1] | also measured
6 | 153.7 to 155.1 °C | COc1ccc(C(=O)/C=C/c2ccc(Br)cc2)cc1 [a2, (E)-1-(4-Methoxyphenyl)-3-(4-bromophenyl)prop-2-en-1-one] | 37.6 ± 4.4% | 
7 | 122.2 to 123.6 °C | COc1ccc(C(=O)/C=C/c2ccc(Br)cc2F)cc1 [a3, (E)-1-(4-Methoxyphenyl)-3-(4-bromo-2-fluorophenyl)prop-2-en-1-one] | 41.8 ± 5.9% | 
8 | 98.7 to 101 °C | COc1ccc(C(=O)/C=C/c2ccc(F)cc2Br)cc1 [a4, (E)-1-(4-Methoxyphenyl)-3-(2-bromo-4-fluorophenyl)prop-2-en-1-one] | 41.2 ± 4.6% | 
9 | 145.3 to 146.4 °C | COc1ccc(C(=O)/C=C/c2ccc(Br)cc2Cl)cc1 [a5, (E)-1-(4-Methoxyphenyl)-3-(4-bromo-2-chlorophenyl)prop-2-en-1-one] | 9 ± 5.6% | 
10 | 95.7 to 97 °C | COc1ccc(C(=O)/C=C/c2cccc(OC)c2)cc1 [a9, (E)-1-(4-Methoxyphenyl)-3-(3-methoxyphenyl)prop-2-en-1-one] | 59 ± 2.9% | 
11 | 106.3 to 107.9 °C | CCOc1ccc(/C=C/C(=O)c2ccc(OC)cc2)cc1 [a11, (E)-1-(4-Methoxyphenyl)-3-(4-ethoxyphenyl)prop-2-en-1-one] | 13.1 ± 8.4% | 
